# Tests used:
# [1] = test system: Colinus virginianus; conditions: acute, oral, mortality
# [2] = test system: Cyprinus carpio; conditions: acute; duration: 96 hours; mortality
# [3] = test system: Gammaridae; conditions: chronic/long-term; duration: 28 days
# [4] = test system: Rattus norvegicus
# [5] = test system: Pimephales promelas; conditions: chronic/long-term; duration: 32 days; growth
# [6] = test system: Pontoscolex corethrurus
# [7] = test system: Neomysis kadiakensis
# [8] = test system: Anas platyrhynchos; conditions: reproductive
# [9] = test system: Apis mellifera; conditions: acute, mortality
smiles,measurement,setting,value
Cn1cc(C(=O)Nc2cccc3c2[C@@H]2CC[C@H]3C2=C(Cl)Cl)c(C(F)F)n1 [Benzovindiflupyr],LC50,[1]; diet,> 1170 mg/kg-day
same,LD50,[1],1320 mg/kg
same,LC50,[2],3.5 ng/mL
same,NOEC,[3],4.1 mg/kg
same,LD50,"[4]; acute, mortality",55 mg/kg
same,NOAEL,"[4]; acute, neurology",10 mg/kg-day
same,NOAEL,[4]; chronic,6.8 mg/kg-day
same,NOAEL,"[4]; chronic, duration: 2 years, histopathology: nonneoplastic",4.88 mg/kg-day
same,NOAEL,"[4]; reproduction developmental, M/F, reproduction",6.8 mg/kg-day
same,NOAEL,"[4]; subchronic, duration: 90 days, oral, organ weight",7.6 mg/kg-day
same,NOEC,[5],0.00095 mg/L
same,LC50,"[6]; acute, duration: 14 days, mortality",406 mg/kg
same,NOEC,"[6]; chronic/long-term, duration: 8 weeks",7.81 mg/kg
same,LC50,"[7]; acute, duration: 96 hours, mortality",0.056 mg/L
same,NOEC,"[7]; chronic/long-term, duration: 28 days, reproduction",0.0074 mg/L
same,NOEC,[8],25 mg/kg-day
same,LD50,[9]; dermal,> 100 µg/piece
same,LD50,"[9]; oral, unspecified",> 109 µg/piece

# — EPA's ToxValDB 9.5 (doi:10.2903/j.efsa.2015.4043)
